From US20150177246A1, “FUSION GENE OF CEP55 GENE AND RET GENE” (NATIONAL CANCER CENTER, priority 2012, published 2015)

Tested on: downstream signals (STAT3, AKT, MAPK) of the CEP55-RET fusion polypeptide in NIH-3T3 cells
Assay: Western blotting of downstream signals of the RET fusion polypeptide after serum starvation and culture with a RET tyrosine kinase inhibitor
Assay type: cell-based, murine
Conditions: inhibitor 1 μM in medium after serum starvation; NIH-3T3 cells expressing wild-type CEP55-RET; FIG. 7
Text: In this figure, “CEP55-RET” represents the results for cell lines expressing the CEP55-RET fusion polypeptide, and “KIF5B-RET” represents the results for cell lines expressing the KIF5B-RET fusion polypeptide. […] The “STAT3” and “p-STAT3 (Y705)” rows show the results of detecting STAT3 and phosphorylated STAT3, respectively. The “AKT” and “p-AKT (S473)” show the results of detecting AKT and phosphorylated AKT, respectively. The “MAPK” and “p-MAPK (T202/Y204)” rows show the results of detecting MAPK and phosphorylated MAPK, respectively.
Next, normal murine fibroblast line NIH-3T3 cells were infected with each of the thus-prepared retroviral vectors to obtain cell lines stably expressing the wild-type or the mutated CEP55-RET fusion polypeptide.
In addition, the cell lines stably expressing the wild-type or the mutated RET fusion polypeptide were each cultured in a liquid medium, subjected to serum starvation, and then cultured again with the medium being replaced with the one supplemented with a RET tyrosine kinase inhibitor (vandetanib or XL184). Protein from each of the thus-obtained cell lines was extracted and subjected to Western blotting analysis using antibodies against various phosphorylated or unphosphorylated proteins to thereby analyze the downstream signals of the RET fusion polypeptides.

## COc1cc2c(Nc3ccc(Br)cc3F)ncnc2cc1OCC1CCN(C)CC1 [V, 4-(4-bromo-2-fluoroanilino)-6-methoxy-7-(1-methylpiperidin-4-ylmethoxy)quinazoline]
  phosphorylation of MAPK, p-MAPK (T202/Y204705): significantly suppressed
  phosphorylation of STATS, p-STAT3 (Y705): significantly suppressed
